25 compounds from US4417052A, “Phenyl-lower-alkyl piperidines and pyrrolidines” (Sterling Drug Inc., priority 1981, dated 1983) can be followed below.

Assay [1] deals with carrageenin-induced foot edema. Briefly: inhibition of carrageenin-induced foot edema test (C.E.). Format: in vivo. The settings on record: oral; for inhibition in vivo at 4 µmol/kg: dose 0.004 millimoles/kg; for inhibition in vivo at 20 µmol/kg: dose 0.02 millimoles/kg; for C.E. percent inhibition (Table B): formula V amides. The method, then: (§1) Anti-inflammatory activity was determined using (1) the inhibition of carrageenin-induced foot edema test essentially described by Winter et al., Proc. Soc. Exp. Biol. and Med. 111, 554 (1962) as modified by Van Arman et al., J. Pharmacol. Exptl. Therap. 150, 328 (1965) and (2) a modification of the inhibition of adjuvant-induced arthritis test described by Pierson, J. Chronic Diseases 16, 863 (1963) and Glenn et al., Am. J. Vet. Res. 26, 1180 (1965).
(§2) The N-{2-,3- and 4-[R1 -(phenyl)-C(=X)]-phenyl-lower-alkyl}amines of formulas I, Ia and Ib of the invention have been tested in the carrageenin edema (CE) and adjuvant arthritis (AA) tests and found to have anti-inflammatory activity. For comparative purposes, data obtained in the carrageenin edema test on the reference compound (designated "Ref."), 4[(3-benzoylphenyl)methyl]morpholine, disclosed in French Patent 1,549,342, are also given. All data were obtained on oral administration.
(In general: The carrageenan paw model is a standard test of acute inflammation.)

Assay [2] relates to adjuvant-induced arthritis. Briefly: inhibition of adjuvant-induced arthritis test (A.A.). Format: in vivo. Particulars: oral; for A.A. percent inhibition (in brackets): corn oil vehicle; for A.A. percent inhibition (in parentheses): second experiment. The method, then: as §1, §2
Where [3] appears, read: read-out: C.E. percent inhibition.
[4] abbreviates: dose 0.08 millimoles/kg, read-out: C.E. percent inhibition.
Where [5] appears, read: dose 0.324 millimoles/kg, read-out: C.E. percent inhibition.

Where a name gives a salt, the structure may show the parent alone.

Consider `CC(CN1CCCCC1CC1CCCCC1)c1cccc(C(C)c2ccccc2)c1` (stereo not drawn) [Example 11, 2-cyclohexylmethyl-1-{2-[3-(α-methylbenzyl)phenyl]propyl}piperidine], for which, in assay [1] (setting [3]), the inhibition in vivo at 4 µmol/kg was 0% and the inhibition in vivo at 20 µmol/kg was 15%. Moreover, the inhibition in vivo at 80 µmol/kg in assay [1] (setting [4]) was determined as 29%. The inhibition in vivo at 324 µmol/kg in assay [1] (setting [5]) amounted to 64%.
The like results for `CC(CN1CCCCC1CC1CCCCC1)c1cccc(C(O)c2cccc(Cl)c2)c1` (stereo not drawn) [Example 3A, 2-Cyclohexylmethyl-1-{2-[3-(α-hydroxy-3-chlorobenzyl)phenyl]propyl}piperidine] were, in that order, 0%, 0%, 34% and 75%.
On the same counts, the results for `CC(CN1CCCCC1CC1CCCCC1)c1cccc(C(=O)c2ccc(Cl)c(Cl)c2)c1` (centres unmarked) [Example 20C, 2-Cyclohexylmethyl-1-{2-[3-(3,4-dichlorobenzoyl)phenyl]propyl}piperidine] are 17%, 15%, 19% and 51%.
The like results for `OC(c1ccccc1)c1cccc(CCN2CCCCC2CC2CCCCC2)c1` (stereo not drawn) [Example 1A, 2-Cyclohexylmethyl-1-{2-[3-(α-hydroxybenzyl)phenyl]ethyl}piperidine] were, in that order, 0%, 0%, 51% and 62%.
As for `CC(CN1CCCCC1CC1CCCCC1)c1cccc(C(=O)c2cccc(Cl)c2)c1` (centres unmarked) [Example 20B, 2-Cyclohexylmethyl-1-{2-[3-(3-chlorobenzoyl)phenyl]propyl}piperidine], in assay [1] (setting [3]), the inhibition in vivo at 4 µmol/kg worked out at 14% and the inhibition in vivo at 20 µmol/kg is 0%. Besides, the inhibition in vivo at 80 µmol/kg in assay [1] (setting [4]) was 22%. Moreover, the inhibition in vivo at 324 µmol/kg in assay [1] (setting [5]) amounted to 65%.
Regarding `CC1CN(CC(C)c2cccc(C(=O)c3ccccc3)c2)CC(C)O1` (centres unmarked) [Example 7J, 2,6-Dimethyl-4-[2-(3-benzoylphenyl)propyl]morpholine cyclohexanesulfamate], the inhibition in vivo at 80 µmol/kg in assay [1] (setting [4]) worked out at 62%. Besides, the inhibition in vivo at 324 µmol/kg in assay [1] (setting [5]) was determined as 66%.
Take `O=C(c1ccccc1)c1cccc(CCN2CCCCC2CC2CCCCC2)c1` (centres unmarked) [Example 20A, 2-Cyclohexylmethyl-1-[2-(3-benzoylphenyl)ethyl]piperidine]: the inhibition in vivo at 20 µmol/kg in assay [1] (setting [3]) amounted to 25%. For the same compound, the inhibition in vivo at 40 µmol/kg in assay [1] (dose 0.04 millimoles/kg, read-out: C.E. percent inhibition) is 9%. In addition, the inhibition in vivo at 80 µmol/kg in assay [1] (setting [4]) came out at 46%. Further, the inhibition in vivo at 324 µmol/kg in assay [1] (setting [5]) turned out to be 70%.
For `O=C(c1ccccc1)c1cccc(CN2CCOCC2)c1` [Ref., 4[(3-benzoylphenyl)methyl]morpholine, reference compound], in assay [1] (setting [4]), the inhibition in vivo at 80 µmol/kg is 0%. The inhibition in vivo at 324 µmol/kg in assay [1] (setting [5]) is 23%.
For `Cc1ccc(C(=O)c2cccc(C(C)CN3CCCCC3CC3CCCCC3)c2)cc1` (centres unmarked) [Example 7C, 2-Cyclohexylmethyl-1-{2-[3-(4-methylbenzoyl)phenyl]propyl}piperidine], in assay [1] (setting [3]), the inhibition in vivo at 4 µmol/kg was found to be 0% and the inhibition in vivo at 20 µmol/kg was 10%. Moreover, in assay [1] (setting [4]), the inhibition in vivo at 80 µmol/kg came out at 58%. The inhibition in vivo at 324 µmol/kg in assay [1] (setting [5]) is 75%.
Turning to `ON=C(c1ccccc1)c1cccc(CCN2CCOCC2)c1` [Example 15A, 4-[2-(3-Benzoylphenyl)ethyl]morpholine oxime], the inhibition in vivo at 80 µmol/kg in assay [1] (setting [4]) turned out to be 27%. Further, in assay [1] (setting [5]), the inhibition in vivo at 324 µmol/kg was 29%.
With `CN(C)C(c1ccccc1)c1cccc(CCN2CCOCC2)c1` (stereo not drawn) [Example 22, 4-{2-[3-(α-dimethylaminobenzyl)phenyl]ethyl}morpholine], the inhibition in vivo at 80 µmol/kg in assay [1] (setting [4]) was 29%. Further, the inhibition in vivo at 324 µmol/kg in assay [1] (setting [5]) amounted to 63%.
On the same counts, the results for `CC(CN1CCOCC1)c1cccc(C(N)c2ccccc2)c1` (stereo not drawn) [Example 16C, 4-{2-[3-(α-Aminobenzyl)phenyl]propyl}morpholine dihydrochloride] are 49% and 84%.
The like results for `NC(c1ccccc1)c1cccc(CCN2CCOCC2)c1` (stereo not drawn) [Example 16A, 4-{2-[3-(α-Aminobenzyl)phenyl]ethyl}morpholine dihydrochloride] were, in that order, 27% and 39%.
On to `CC(C(=O)N1CCN(C2CCCC2)CC1)c1cccc(C(=O)c2ccccc2)c1.Cl` (stereo not drawn) [Example 1J, 4-Cyclopentyl-1-[α-(3-benzoylphenyl)propionyl]piperazine hydrochloride], for which the “C.E. percent inhibition (Table B)” value in assay [1] (dose 0.08 millimoles/kg) is reported as 18%; in assay [1] (dose 0.324 millimoles/kg) it was 72%.
`CC(CN1CCCCC1CCCC1CCCCC1)c1cccc(C(O)c2ccccc2)c1` (stereo not drawn) [Example 3E, 2-(3-Cyclohexylpropyl)-1-{2-[3-(α-hydroxybenzyl)phenyl]propyl}piperidine]: in assay [1] (setting [3]), the inhibition in vivo at 4 µmol/kg worked out at 14% and the inhibition in vivo at 20 µmol/kg is 34%.
Turning to `Cc1ccccc1C(=O)c1cccc(C(C)CN2CCCCC2CC2CCCCC2)c1` (centres unmarked) [Example 8, 2-cyclohexylmethyl-1-{2-[3-(2-methylbenzoyl)phenyl]propyl}piperidine], in assay [1] (setting [3]), the inhibition in vivo at 4 µmol/kg was determined as 2% and the inhibition in vivo at 20 µmol/kg was found to be 21%. The inhibition in vivo at 80 µmol/kg in assay [1] (setting [4]) worked out at 33%. Moreover, in assay [1] (setting [5]), the inhibition in vivo at 324 µmol/kg is 68%.
Regarding `O=C(c1ccccc1)c1cccc(CCN2CCOCC2)c1` [Example 1C, 4-[2-(3-Benzoylphenyl)ethyl]morpholine hydrochloride monohydrate], in assay [1] (setting [4]), the inhibition in vivo at 80 µmol/kg came to 40%. Further, the inhibition in vivo at 324 µmol/kg in assay [1] (setting [5]) was 77%.
Turning to `CC(CN1CCCCC1CC1CCCCC1)c1cccc(C(=O)c2ccccc2)c1.Cl` (single isomer, unassigned) [14(a), 2-cyclohexylmethyl-1-[2-(3-benzoylphenyl)propyl]piperidine hydrochloride], the results for the “A.A. percent inhibition (in brackets)” value in assay [2] (dose 0.0013 millimoles/kg), in assay [2] (dose 0.005 millimoles/kg) and in assay [2] (dose 0.02 millimoles/kg) were 0%, 39% and 65%, respectively. Besides, the “A.A. percent inhibition (in parentheses)” value in assay [2] (dose 0.0013 millimoles/kg) is 28%; in assay [2] (dose 0.005 millimoles/kg), 46%; in assay [2] (dose 0.02 millimoles/kg) it was 87%. The inhibition in vivo at 1.3 µmol/kg in assay [2] (dose 0.0013 millimoles/kg, read-out: A.A. percent inhibition) came out at 16%. Also, in assay [2] (dose 0.005 millimoles/kg, read-out: A.A. percent inhibition), the inhibition in vivo at 5 µmol/kg came to 46%. Moreover, the inhibition in vivo at 20 µmol/kg in assay [2] (dose 0.02 millimoles/kg, read-out: A.A. percent inhibition) stood at 79%.
With `CC(CN1CCCCC1CC1CCCCC1)c1cccc(C(C)(O)c2ccccc2)c1` (stereo not drawn) [Example 6, 2-cyclohexylmethyl-1-{2-[3-(α-hydroxy-α-methylbenzyl)phenyl]propyl}piperidine], in assay [1] (setting [3]), the inhibition in vivo at 4 µmol/kg is 14% and the inhibition in vivo at 20 µmol/kg was 5%. The inhibition in vivo at 80 µmol/kg in assay [1] (setting [4]) is 28%. In assay [1] (setting [5]), the inhibition in vivo at 324 µmol/kg is 55%.
As to `Cc1cccc(C(=O)c2cccc(C(C)CN3CCCCC3CC3CCCCC3)c2)c1` (centres unmarked) [Example 9, 2-cyclohexylmethyl-1-{2-[3-(3-methylbenzoyl)phenyl]propyl}piperidine], in assay [1] (setting [3]), the inhibition in vivo at 4 µmol/kg was found to be 0% and the inhibition in vivo at 20 µmol/kg worked out at 0%. In addition, in assay [1] (setting [4]), the inhibition in vivo at 80 µmol/kg worked out at 21%. Also, in assay [1] (setting [5]), the inhibition in vivo at 324 µmol/kg amounted to 47%.
Take `C=C(c1ccccc1)c1cccc(C(C)CN2CCCCC2CC2CCCCC2)c1` (centres unmarked) [Example 17, 2-cyclohexylmethyl-1-{2-[3-(1-phenyl-1-vinyl)phenyl]propyl}piperidine]: in assay [1] (setting [3]), the inhibition in vivo at 4 µmol/kg worked out at 9% and the inhibition in vivo at 20 µmol/kg was 16%. Besides, in assay [1] (setting [4]), the inhibition in vivo at 80 µmol/kg was found to be 47%. Besides, the inhibition in vivo at 324 µmol/kg in assay [1] (setting [5]) was 67%.
With `CC(c1cccc(C(=O)c2ccccc2)c1)N1CCOCC1` (centres unmarked) [Example 21, 4-[1-(3-benzoylphenyl)ethyl]morpholine], the inhibition in vivo at 80 µmol/kg in assay [1] (setting [4]) stood at 32%. Also, the inhibition in vivo at 324 µmol/kg in assay [1] (setting [5]) was found to be 46%.
As to `Cc1ccc(C(O)c2cccc(C(C)CN3CCCCC3CC3CCCCC3)c2)cc1` (stereo not drawn) [Example 4, 2-cyclohexylmethyl-1-{2-[3-(α-hydroxy-4-methylbenzyl)phenyl]propyl}piperidine], in assay [1] (setting [3]), the inhibition in vivo at 4 µmol/kg turned out to be 0% and the inhibition in vivo at 20 µmol/kg came out at 1%. Further, the inhibition in vivo at 80 µmol/kg in assay [1] (setting [4]) stood at 18%. Also, the inhibition in vivo at 324 µmol/kg in assay [1] (setting [5]) stood at 72%.
For the compound `CN(C)CCCNCCc1cccc(C(=O)c2ccccc2)c1` [Example 1D, N-[2-(3-Benzoylphenyl)ethyl]-N-(3-dimethylaminopropyl)amine dihydrochloride hemi-hydrate], the inhibition in vivo at 80 µmol/kg in assay [1] (setting [4]) is 36%. In addition, in assay [1] (setting [5]), the inhibition in vivo at 324 µmol/kg worked out at 65%.
As for `CC(CN1CCCCC1CC1CCCCC1)c1cccc(C(O)c2c(Cl)cccc2Cl)c1` (stereo not drawn) [Example 5A, 2-Cyclohexylmethyl-1-{2-[3-(α-hydroxy-2,6-dichlorobenzyl)phenyl]propyl}piperidine], in assay [1] (setting [3]), the inhibition in vivo at 4 µmol/kg turned out to be 0% and the inhibition in vivo at 20 µmol/kg was 0%. The inhibition in vivo at 80 µmol/kg in assay [1] (setting [4]) turned out to be 58%. The inhibition in vivo at 324 µmol/kg in assay [1] (setting [5]) amounted to 68%.
